Where “and” joins values, the source holds several entries; their conditions need not be identical. Identical values can stand only once. Blank lines part the entries; values can stand above or below the molecule they belong to.
Experiments:
HuR = biological target: T1, HuR (Homo sapiens, UniProt Q15717); assay: Surface plasmon resonance, direct binding to immobilized HuR; conditions: injected at 0–125 μM, 20°C; n = 2
T1 construct: made in house; host or cells: E. coli BL21 (DE3)
Experimental: Surface plasmon resonance (SPR) datasets were acquired using a BIACORE 3000 (GE Healthcare) at 20°C as described. Briefly, HuR was immobilized into a CM5 chip by amine-coupling chemistry and AZA-9 dissolved in buffer (20 mM HEPES pH 7.4, 150 mM NaCl, 3 mM EDTA, 0.05% p20 (v/v), 5% DMSO (v/v)) was injected into the flow cell at a flow rate of 60 μL/min. The mixtures complexes were allowed to associate for 400 sec and dissociate for 160 sec. SPR sensorgrams were generated using Scrubber2 (BioLogic Software, Australia).
Fig 1 AZA-9 inhibits HuR-ARE RNA interaction and binds directly to HuR. Titration of 2 nM ARE^c-fos and control RNA (a 16-nt fluorescein-labeled RNA oligo with random sequence) with (A) HuR and (B) HuR RRM1/2 (n = 3). (C) Dose-response curve of AZA-9 disrupting HuR-ARE^c-fos binding in FP assay using 10 nM HuR and 2 nM fluorescein-labeled ARE^c-fos (n = 3). (D) Dose-response curve of AZA-9 disrupting HuR RRM1/2-ARE^c-fos binding in FP assay using 50 nM HuR RRM1/2 and 2 nM fluorescein-labeled ARE^c-fos (n = 3). (E) SPR sensorgrams of AZA-9 injected at increasing concentrations of 0–125 μM into a flow cell containing immobilized HuR (n = 2). Structure of AZA-9 is shown on the right. The following were the negative controls used–random RNA in (A) and (B); and AZA-15 in (C) and (D). […]

Musashi-1 (Msi1) = Musashi-1 (Msi1) (Homo sapiens, UniProt O43347); assay: Binding to Musashi-1 (unpublished data); conditions: authors' unpublished data
Chain of Musashi-1 (Msi1) (O43347 whole entry, species assumed): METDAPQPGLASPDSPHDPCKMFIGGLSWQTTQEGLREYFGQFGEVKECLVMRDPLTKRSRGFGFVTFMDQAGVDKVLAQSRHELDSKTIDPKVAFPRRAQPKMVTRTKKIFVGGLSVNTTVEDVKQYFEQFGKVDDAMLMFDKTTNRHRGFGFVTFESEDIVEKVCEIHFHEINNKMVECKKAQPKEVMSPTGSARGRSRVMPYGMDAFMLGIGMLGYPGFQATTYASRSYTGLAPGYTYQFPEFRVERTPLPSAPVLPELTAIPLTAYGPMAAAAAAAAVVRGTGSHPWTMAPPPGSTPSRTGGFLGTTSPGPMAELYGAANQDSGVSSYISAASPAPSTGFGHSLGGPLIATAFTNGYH

[1] = biological target: T2, HuR-ARE^Msi1 interaction (full length HuR) (Homo sapiens, UniProt Q15717); assay: FP competition assay, HuR-ARE^Msi1 binding; type: biochemical; conditions: 10 nM HuR, 2 nM fluorescein-labeled ARE^Msi1; n = 3; read-out: IC50, inhibition of HuR-ARE^Msi1 interaction
T2 construct: full length HuR (326 residues); made in house; host or cells: E. coli BL21 (DE3)
T2 sequence (Q15717 whole entry): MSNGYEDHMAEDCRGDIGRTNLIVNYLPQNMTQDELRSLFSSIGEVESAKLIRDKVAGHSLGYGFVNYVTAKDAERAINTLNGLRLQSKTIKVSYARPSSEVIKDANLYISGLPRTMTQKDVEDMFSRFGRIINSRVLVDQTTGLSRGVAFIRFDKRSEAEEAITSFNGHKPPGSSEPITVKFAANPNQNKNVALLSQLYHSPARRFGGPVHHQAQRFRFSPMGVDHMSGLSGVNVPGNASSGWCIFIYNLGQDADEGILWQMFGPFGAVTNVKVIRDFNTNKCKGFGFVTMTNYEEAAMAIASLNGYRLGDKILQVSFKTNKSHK
Experimental: Synthetic RNA oligos were from Dharmacon. For FP assay, fluorescein-tagged ARE^Msi1 oligo derived from the 3’-UTR of Musashi RNA-binding protein 1 (Msi1) with the sequence 5’-GCUUUUAUUUAUUUUG-3’ and 11-mer ARE^c-fos RNA oligo (5’-AUUUUUAUUUU-3’) identical to the c-fos RNA sequence used in the crystal structure of HuR-RNA complex were used. For NMR studies, unmodified 11-mer ARE^c-fos RNA oligo [8] was used. Prior to the addition of RNA to the protein, the RNA was heated at 95°C for 5 min followed by immediate cooling on ice for 5 min. […]
(§1) FP competition assay for screening and hit validation were carried out as reported previously. […] Measurements were taken using a BioTek Synergy H4 hybrid plate reader (Biotek, Winooski, VT) after incubating for 2 hours at room temperature. […] Percent inhibition was calculated by comparing to the DMSO (0% inhibition) and labeled free RNA only (100% inhibition) controls.
A FP-based high throughput screen on HuR and a 16-mer ARE^Msi1 RNA oligomer from the 3’-UTR of Musashi1 (Msi1) mRNA previously identified novel small molecule inhibitors of HuR-ARE interaction. […] Multi-dose effect was determined to verify the inhibition of HuR-ARE interaction. […]

[2] = biological target: T3, HuR RRM1/2-ARE^c-fos interaction (Homo sapiens, UniProt Q15717); assay: FP competition assay, HuR RRM1/2-ARE^c-fos binding; type: biochemical; conditions: 50 nM HuR RRM1/2, 2 nM fluorescein-labeled ARE^c-fos; n = 3; read-out: IC50, disruption of HuR RRM1/2-ARE^c-fos binding
T3 construct: HuR RRM1/2 (residues 18–186); made in house; host or cells: E. coli BL21 (DE3)
T3 sequence (Q15717 18-186): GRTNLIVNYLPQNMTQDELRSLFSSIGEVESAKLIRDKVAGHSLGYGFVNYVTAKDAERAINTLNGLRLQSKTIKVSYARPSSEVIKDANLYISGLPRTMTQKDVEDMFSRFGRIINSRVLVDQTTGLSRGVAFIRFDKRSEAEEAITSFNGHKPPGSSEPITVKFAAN
Experimental: (§2) Synthetic RNA oligos were from Dharmacon. For FP assay, fluorescein-tagged ARE^Msi1 oligo derived from the 3’-UTR of Musashi RNA-binding protein 1 (Msi1) with the sequence 5’-GCUUUUAUUUAUUUUG-3’ and 11-mer ARE^c-fos RNA oligo (5’-AUUUUUAUUUU-3’) identical to the c-fos RNA sequence used in the crystal structure of HuR-RNA complex were used. For NMR studies, unmodified 11-mer ARE^c-fos RNA oligo [8] was used. Prior to the addition of RNA to the protein, the RNA was heated at 95°C for 5 min followed by immediate cooling on ice for 5 min. The azaphilone derivatives used herein were obtained by semisynthetic diversification of asperbenzaldehyde, which was purified from a strain of Aspergillus nidulans that was engineered to overproduce this compound as described elsewhere. Compounds were dissolved in dimethyl sulfoxide (DMSO) to form 10 mM stock solutions; for NMR studies, deuterated dimethyl sulfoxide (d6-DMSO) was used.
as §1, with “controls. […]” for “controls.”

[3] = biological target: T4, HuR-ARE^c-fos interaction (full length HuR) (Homo sapiens, UniProt Q15717); assay: FP competition assay, HuR-ARE^c-fos binding; type: biochemical; conditions: 10 nM full length HuR, 2 nM fluorescein-labeled ARE^c-fos; n = 3; read-out: IC50, disruption of HuR-ARE^c-fos binding
T4 construct: full length HuR (326 residues); made in house; host or cells: E. coli BL21 (DE3)
T4 sequence (Q15717 whole entry): as the sequence (Q15717 whole entry) above
Experimental: as §2
as §1, with “controls. […]” for “controls.”

HuR RRM1/2 [4] = biological target: T5, HuR RRM1/2 (Homo sapiens, UniProt Q15717); assay: NMR titration of 15N/ILV-labeled HuR RRM1/2; type: binding; conditions: equimolar concentration (1:1), 50 μM 15N HuR RRM1/2
T5 construct: HuR RRM1/2 (residues 18–186); made in house; host or cells: E. coli BL21 (DE3)
T5 sequence (Q15717 18-186): as the sequence (Q15717 18-186) above
Experimental: Proteins for NMR were dissolved in NMR buffer (100 mM NaCl, 10 mM NaPO4 pH 6.8, 10% D2O). ^15N NMR data were acquired using Bruker Avance 800 MHz spectrometer with a TCI cryoprobe. ILV ^13C NMR data were acquired using on a Bruker Avance III 600 MHz spectrometer. NMR data were acquired at 25°C, processed using NMRPipe and analyzed using NMRView. For ^15N and ILV chemical shift mapping, 80 μM ^15N/ILV-labeled HuR RRM1/2 was titrated with unlabeled ARE^c-fos RNA at increasing molar ratios of 1:0, 1:0.5, 1:1, and 1:1.7. AZA-9 was titrated at 1:1 and 1:2 molar ratios into 50 μM ^15N/ ILV-labeled HuR RRM1/2 in NMR buffer with 10% d6-DMSO. […] The ^15N titrations were monitored by acquiring 2D ^1H-^15N TROSY spectra, and the ILV titrations were monitored by acquiring 2D ^1H-^13C HSQC spectra. The published backbone amide assignments of HuR RRM1/2 (BMRB entry 26628) and the ILV assignments made herein were used in the NMR analysis.
The interaction of AZA-9 with HuR RRM1/2 was characterized by NMR methods. […] Specifically, residue R97 in the inter-domain linker region (whose intensity reduced by ~50% at equimolar concentration of AZA-9, Fig 4C) has been previously reported as important for RNA binding, RNA recognition and high affinity HuR-RNA complex formation. […]

HuR full length [5] = biological target: T6, HuR full length (UniProt Q15717 1-326); assay: fluorescence polarization; 10 nM HuR, 2 nM RNA; complex disrupted by AZA-9 (compound IC50 1.1 uM); FP: room temperature, 2 h incubation in the competition assay, buffer not given (as in cited ref 22); NMR: 100 mM NaCl, 10 mM sodium phosphate pH 6.8, 10% D2O; conditions: protein: recombinant; single strand
T6 sequence (Q15717 whole entry): as the sequence (Q15717 whole entry) above

HuR full length [6] = biological target: T6, HuR full length; assay: fluorescence polarization; 2 nM RNA; FP: room temperature, 2 h incubation in the competition assay, buffer not given (as in cited ref 22); NMR: 100 mM NaCl, 10 mM sodium phosphate pH 6.8, 10% D2O; conditions: protein: recombinant; single strand
HuR RRM1/2 [7] = biological target: HuR RRM1/2 (UniProt Q15717 18-186); assay: as above; conditions: protein: recombinant; tags: N-terminal His6 (retained); single strand
Chain of HuR RRM1/2 (UniProt Q15717 18-186) (Q15717 18-186): as the sequence (Q15717 18-186) above

T1 sequence (Q15717 whole entry): as the sequence (Q15717 whole entry) above

binding to Musashi-1 (in words) (Musashi-1 (Msi1)): also binds
IC50 [1]: 1100 nM
IC50 [2]: 7400 nM
IC50 [3]: ~1200 nM and 1200 nM
reduction of NMR peak intensity of residue R97 (HuR RRM1/2 [4]): ~ 50%
Molecule: CC[C@H](C)/C=C(C)/C=C/C1=CC2=C(Br)C(=O)C(C)(OC(C)=O)C(=O)C2=CO1 (stereo partly drawn) [AZA-9, azaphilone-9]
SPR optical response on immobilized HuR (in words) (HuR): increased optical response in a dose-dependent manner

Molecule: GCUUUUAUUUAUUUUG (ssRNA) [AREMsi1 (fluorescein)]
binding result (HuR full length [5]): binds

Molecule: AUUUUUAUUUU (ssRNA) [AREc-fos (fluorescein)]
Kd (HuR full length [6]): 3.3 nM
Kd (HuR RRM1/2 [7]): 22.2 nM

Source: article PMC5393604, “The fungal natural product azaphilone-9 binds to HuR and inhibits HuR-RNA interaction in vitro” (PLoS ONE, 2017)
